System: HIF-1
Assay: Inhibition of HIF-1 mediated HRE transcription activity (pGL3-HRE-luciferase reporter)
Assay type: cell-based, human
Conditions: HCT116, hypoxic condition 12 hours
Experimental: To investigate the inhibition of HIF-1 transcription activity by the compound of the present invention, pGL3-basic vector (Promega) using luciferase as a reporter was cloned in multi-cloning site so as for HRE (Hypoxia Responsive Element, 5′-ACGTG-3′) existing in human VEGF gene to be repeated 6 times, resulting in the construction of pGL3-HRE-luciferase vector.
The human rectal cancer cell line HCT116 was seeded in a 48-well cell culture vessel. On the next day, the cells were transfected with 25 ng of pGL3-HRE-luciferase vector and 2.5 ng of Renilla control vector by using Polyfect reagent. After culturing the cells for 24 hours, the medium was replaced, followed by further culture for 4 hours. Then, the cells were treated with the compound prepared in each example at the concentration of 10 μM respectively, followed by culture in hypoxic condition (oxygen 1%, nitrogen 94%, carbon dioxide 5%) for 12 hours. Lysate was obtained by using RIPA buffer, by which hypoxia-induced luciferase activity was measured by using dual-luciferase assay system (Promega). Hypoxia-induced luciferase activity after the treatment of the compound prepared in example 1 or the compound prepared in comparative example 1 was measured by the same manner as described above except that the compound was treated at the concentrations of 0, 1, 3, 5, 10, and 20 μM. HIF-1 inhibition activity of each compound prepared in example 1 and comparative example 1 respectively was compared and the results are shown in Table 2 and FIG. 2.

## COC(=O)c1ccc(O)c(NC(=O)COc2ccc(C34CC5CC(CC(C5)C3)C4)cc2)c1 [Comparative Example 1, 3-[2-(4-adamantan-1-yl-phenoxy)-acetylamino]-4-hydroxy-benzoic acid methyl ester, reference compound]
1 μM
  HRE transcription activity (%): 119.4%
3 μM
  HRE transcription activity (%): 121.5%
5 μM
  HRE transcription activity (%): 98.8%
10 μM
  HRE transcription activity (%): 75.6%
20 μM
  HRE transcription activity (%): 43.1%
